{"source": "patent US4124578A", "about": "“Antiovulatory polypeptides” (American Home Products Corporation, priority 1978, dated 1978)", "key": {"[1]": {"assay": "CNS depression noted during the anti-ovulatory test", "assay_type": "in vivo, rat", "conditions": "at the anti-ovulatory dose (6 mg., subcutaneous in oil), female rats", "protocol": "(§1) The rats are sacrificed the next morning (estrus), and the number of animals ovulating and the number of ova identified under a disecting microscope are recorded. The absence of, or a significant decrease in, the number of ova is the criterion for an anti-ovulary effect."}, "spontaneous ovulation": {"system": "spontaneous ovulation", "assay": "Inhibition of spontaneous ovulation in female rats", "assay_type": "in vivo, rat", "conditions": "subcutaneous injections in oil on afternoon of proestrus, adult female rats; for Number of Ovulating Rats: ovulating/total", "protocol": "as §1"}, "[2]": {"system": "Follicle stimulating hormone (FSH) release", "conditions": "in vivo, rat; cited from earlier work"}, "[3]": {"system": "luteinizing hormone (LH) release", "conditions": "in vivo, rat; cited from earlier work"}}, "note": "Non-standard residues stand in square brackets, D forms with d. Residues, ends and D or L forms follow the SMILES beside them. pGlu = O=C1CC[C@@H](C(=O)O)N1"}
{"compound": "CCNC(=O)[C@@H]1CCCN1C(=O)[C@H](CCCNC(=N)N)NC(=O)[C@@H](CC(C)C)NC(=O)C(C)(C)NC(=O)CNC(=O)[C@@H](Cc1c[nH]c2ccccc12)NC(=O)[C@H](CCCNC(=N)N)NC(=O)[C@H](Cc1ccc(O)cc1)NC(=O)[C@@H]1CCC(=O)N1", "note": "[Example 3, L-(5-Oxoprolyl)-L-tyrosyl-L-arginyl-D-tryptophylglycyl-(2-methylalanyl)-D-leucyl-L-arginyl-N-ethyl-L-prolinamide] (HELM PEPTIDE1{[Glp].Y.R.[dW].G.[Aib].[dL].R.P.[CCN[*:1]]}$$$$V2.0)", "values": [{"measurement": "CNS depression", "setting": "[1]", "value": "CNS depression is noted at the anti-ovulatory dose"}]}
{"compound": "CCNC(=O)[C@@H]1CCCN1C(=O)[C@H](CCCNC(=N)N)NC(=O)[C@H](CC(C)C)NC(=O)[C@@H](C)NC(=O)CNC(=O)[C@H](Cc1c[nH]c2ccccc12)NC(=O)[C@H](CCCNC(=N)N)NC(=O)[C@H](Cc1ccc(O)cc1)NC(=O)[C@@H]1CCC(=O)N1", "note": "[Example 5, L-(5-Oxoprolyl)-L-tyrosyl-L-arginyl-L-tryptophylglycyl-D-alanyl-L-leucyl-L-arginyl-N-ethyl-L-prolinamide] (HELM PEPTIDE1{[Glp].Y.R.W.G.[dA].L.R.P.[CCN[*:1]]}$$$$V2.0)", "values": [{"measurement": "% Inhibition of Ovulation", "setting": "spontaneous ovulation; Dose 6 mg.", "value": 60, "unit": "%"}, {"measurement": "Number of Ovulating Rats", "setting": "spontaneous ovulation; Dose 6 mg.", "value": "2/5"}]}
{"compound": "CC(C)C[C@H](NC(=O)[C@@H](C)NC(=O)CNC(=O)[C@H](Cc1c[nH]c2ccccc12)NC(=O)[C@H](CCCNC(=N)N)NC(=O)[C@H](Cc1ccc(O)cc1)NC(=O)[C@@H]1CCC(=O)N1)C(=O)N[C@@H](CCCNC(=N)N)C(=O)N1CCC[C@H]1C(N)=O", "note": "[Example 7, L-(5-Oxoprolyl)-L-tyrosyl-L-arginyl-L-tryptophylglycyl-D-alanyl-L-leucyl-L-arginyl-L-prolyl amide] (HELM PEPTIDE1{[Glp].Y.R.W.G.[dA].L.R.P.[am]}$$$$V2.0)", "values": [{"measurement": "% Inhibition of Ovulation", "setting": "spontaneous ovulation; Dose 0.5 mg.", "value": 50, "unit": "%"}, {"measurement": "Number of Ovulating Rats", "setting": "spontaneous ovulation; Dose 0.5 mg.", "value": "3/6"}]}
{"compound": "CCNC(=O)[C@@H]1CCCN1C(=O)[C@H](Cc1c[nH]c2ccccc12)NC(=O)[C@H](CCCNC(=N)N)NC(=O)[C@H](Cc1ccc(O)cc1)NC(=O)[C@@H]1CCC(=O)N1", "note": "[Example 9, L-(5-Oxoprolyl)-L-tyrosyl-L-arginyl-L-tryptophyl-N-ethyl-2-prolin amide] (HELM PEPTIDE1{[Glp].Y.R.W.P.[CCN[*:1]]}$$$$V2.0)", "values": [{"measurement": "% Inhibition of Ovulation", "setting": "spontaneous ovulation; Dose 6 mg.", "value": 50, "unit": "%"}, {"measurement": "Number of Ovulating Rats", "setting": "spontaneous ovulation; Dose 6 mg.", "value": "2/4"}]}
{"compound": "[pGlu]YRW-NH2", "values": [{"measurement": "Follicle stimulating hormone (FSH) release", "setting": "[2]", "value": "unaffected"}, {"measurement": "release of luteinizing hormone (LH)", "setting": "[3]", "value": "release luteinizing hormone (LH)"}]}
{"compound": "[pGlu]YRWGHL-NH2", "values": [{"measurement": "release of luteinizing hormone (LH)", "setting": "[3]", "value": "release LH"}]}
